The test system of the experiment is Crotalus adamanteus. Briefly: Inhibition of Crotalus adamanteus venom PLA2.

Structures are written as SMILES. Converted amounts (≈) assume the structure as drawn.

Turning to `CCCCCCCCCCCCCCCCCCCC[C@@H](O)C(=O)N[C@@H](CO)[C@H](O)[C@H](O)CCCCCCCCCC(C)C`, the ED50 was 100 µg/mL (≈ 159 µM).

These data come from ChEMBL document CHEMBL1142629, “New lipids from the tunicate Cystodytes cf. dellechiajei, as PLA2 inhibitors” (J Nat Prod, 2000).
